From PubChem BioAssay AID2060499 (Molecular Pharmacology Branch, DTP, NCI, 2025)

Tested on: 777334-354-R2-J4-PDC tumor spheroids with HUVEC/MSC, viability
Assay: Anticancer human tumor 777334-354-R2-J4-PDC patient-derived pancreatic adenocarcinoma cell line growth inhibition [GQUAD]
Conditions: for IC50: curve of first compound; for viability, T/C: stronger effect = lower value
Summary of the method: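 Multi-cell-type spheroids of tumor cells with HUVEC and mesenchymal stem cells, treated with drug combinations. Concentrations descend in half-log steps from near clinical Cmax, or from 10 microM where Cmax is unknown; viability read-out.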

[1] = second compound 0.0316 µM, first compound 0.0316 µM
[2] = second compound 0.0316 µM, first compound 0.1 µM
[3] = second compound 0.0316 µM, first compound 0.316 µM
[4] = second compound 0.0316 µM, first compound 1 µM
[5] = second compound 0.0316 µM, first compound 3.16 µM
[6] = second compound 0.0316 µM, first compound 10 µM
[7] = second compound 0.1 µM, first compound 0.0316 µM
[8] = second compound 0.1 µM, first compound 0.1 µM
[9] = second compound 0.1 µM, first compound 0.316 µM
[10] = second compound 0.1 µM, first compound 1 µM
[11] = second compound 0.1 µM, first compound 3.16 µM
[12] = second compound 0.1 µM, first compound 10 µM
[13] = second compound 0.316 µM, first compound 0.0316 µM
[14] = second compound 0.316 µM, first compound 0.1 µM
[15] = second compound 0.316 µM, first compound 0.316 µM
[16] = second compound 0.316 µM, first compound 1 µM
[17] = second compound 0.316 µM, first compound 3.16 µM
[18] = second compound 0.316 µM, first compound 10 µM
[19] = second compound 1 µM, first compound 0.0316 µM
[20] = second compound 1 µM, first compound 0.1 µM
[21] = second compound 1 µM, first compound 0.316 µM
[22] = second compound 1 µM, first compound 1 µM
[23] = second compound 1 µM, first compound 3.16 µM
[24] = second compound 1 µM, first compound 10 µM
[25] = second compound 3.16 µM, first compound 0.0316 µM
[26] = second compound 3.16 µM, first compound 0.1 µM
[27] = second compound 3.16 µM, first compound 0.316 µM
[28] = second compound 3.16 µM, first compound 1 µM
[29] = second compound 3.16 µM, first compound 3.16 µM
[30] = second compound 3.16 µM, first compound 10 µM
[31] = second compound 10 µM, first compound 0.0316 µM
[32] = second compound 10 µM, first compound 0.1 µM
[33] = second compound 10 µM, first compound 0.316 µM
[34] = second compound 10 µM, first compound 1 µM
[35] = second compound 10 µM, first compound 3.16 µM
[36] = second compound 10 µM, first compound 10 µM
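Note: spheroids exposed to compounds for 7 days before readout.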

C#Cc1c(F)ccc2cc(O)cc(-c3ncc4c(N5CC6CCC(C5)N6)nc(OCC56CCCN5CC(F)C6)nc4c3F)c12 (stereo unspecified) + Cc1[nH]c2ccc(F)cc2c1-c1nc2c3cccnc3c3ncccc3c2[nH]1
IC50 (second compound 0.0316 µM): 81.4 nM
IC50 (second compound 0.1 µM): 47.8 nM
IC50 (second compound 0.316 µM): < 31.6 nM
IC50 (second compound 1 µM): < 31.6 nM
IC50 (second compound 3.16 µM): < 31.6 nM
IC50 (second compound 10 µM): < 31.6 nM
viability, T/C [1]: 54.6%
viability, T/C [2]: 52.6%
viability, T/C [3]: 37.2%
viability, T/C [4]: 34.6%
viability, T/C [5]: 25.9%
viability, T/C [6]: 20%
viability, T/C [7]: 56.3%
viability, T/C [8]: 37.2%
viability, T/C [9]: 32.2%
viability, T/C [10]: 38.1%
viability, T/C [11]: 26.3%
viability, T/C [12]: 20.8%
viability, T/C [13]: 51.2%
viability, T/C [14]: 38.6%
viability, T/C [15]: 34.9%
viability, T/C [16]: 39.1%
viability, T/C [17]: 21%
viability, T/C [18]: 24.6%
viability, T/C [19]: 48%
viability, T/C [20]: 33.9%
viability, T/C [21]: 27.6%
viability, T/C [22]: 26.1%
viability, T/C [23]: 21.9%
viability, T/C [24]: 18.1%
viability, T/C [25]: 26%
viability, T/C [26]: 10.1%
viability, T/C [27]: 9.09%
viability, T/C [28]: 7.85%
viability, T/C [29]: 10.6%
viability, T/C [30]: 8.93%
viability, T/C [31]: 16.9%
viability, T/C [32]: 9.99%
viability, T/C [33]: 10.5%
viability, T/C [34]: 10.1%
viability, T/C [35]: 8.96%
viability, T/C [36]: 8.05%

O=C(c1cc(Cc2n[nH]c(=O)c3ccccc23)ccc1F)N1CCN(C(=O)C2CC2)CC1 + Cc1[nH]c2ccc(F)cc2c1-c1nc2c3cccnc3c3ncccc3c2[nH]1
IC50 (second compound 0.0316 µM): > 10000 nM
IC50 (second compound 0.1 µM): > 10000 nM
IC50 (second compound 0.316 µM): > 10000 nM
IC50 (second compound 1 µM): > 10000 nM
IC50 (second compound 3.16 µM): < 31.6 nM
IC50 (second compound 10 µM): < 31.6 nM
viability, T/C [1]: 95.4%
viability, T/C [2]: 95.8%
viability, T/C [3]: 102%
viability, T/C [4]: 98.7%
viability, T/C [5]: 93.6%
viability, T/C [6]: 83.1%
viability, T/C [7]: 98.6%
viability, T/C [8]: 98.9%
viability, T/C [9]: 99.5%
viability, T/C [10]: 92.5%
viability, T/C [11]: 103%
viability, T/C [12]: 78.7%
viability, T/C [13]: 99.2%
viability, T/C [14]: 98.7%
viability, T/C [15]: 95.1%
viability, T/C [16]: 103%
viability, T/C [17]: 106%
viability, T/C [18]: 76%
viability, T/C [19]: 75.5%
viability, T/C [20]: 89.7%
viability, T/C [21]: 91.6%
viability, T/C [22]: 82.9%
viability, T/C [23]: 89.2%
viability, T/C [24]: 82.5%
viability, T/C [25]: 37.8%
viability, T/C [26]: 39.2%
viability, T/C [27]: 36.4%
viability, T/C [28]: 38.2%
viability, T/C [29]: 43%
viability, T/C [30]: 32.8%
viability, T/C [31]: 24.9%
viability, T/C [32]: 35.9%
viability, T/C [33]: 39%
viability, T/C [34]: 33.7%
viability, T/C [35]: 36.5%
viability, T/C [36]: 33%

Nc1ccn(C2OC(CO)C(O)C2(F)F)c(=O)n1 (stereo unspecified) + Cc1cnc(CNC(=O)c2c(=O)c3ccc(N4CCCN(C)CC4)nc3n3c2sc2ccccc23)cn1
IC50 (second compound 0.0316 µM): 975 nM
IC50 (second compound 0.1 µM): 679 nM
IC50 (second compound 0.316 µM): 1200 nM
IC50 (second compound 1 µM): 334 nM
IC50 (second compound 3.16 µM): 503 nM
IC50 (second compound 10 µM): 180 nM
viability, T/C [1]: 81.2%
viability, T/C [2]: 61.2%
viability, T/C [3]: 69.1%
viability, T/C [4]: 46.3%
viability, T/C [5]: 39.1%
viability, T/C [6]: 31.6%
viability, T/C [7]: 85.4%
viability, T/C [8]: 64.5%
viability, T/C [9]: 60.8%
viability, T/C [10]: 45.7%
viability, T/C [11]: 37.5%
viability, T/C [12]: 32.7%
viability, T/C [13]: 81.5%
viability, T/C [14]: 72.5%
viability, T/C [15]: 55.5%
viability, T/C [16]: 51.7%
viability, T/C [17]: 47.8%
viability, T/C [18]: 31.6%
viability, T/C [19]: 67.9%
viability, T/C [20]: 58.2%
viability, T/C [21]: 46.4%
viability, T/C [22]: 45.2%
viability, T/C [23]: 41.1%
viability, T/C [24]: 30.2%
viability, T/C [25]: 61.1%
viability, T/C [26]: 64%
viability, T/C [27]: 48.4%
viability, T/C [28]: 43.9%
viability, T/C [29]: 43.6%
viability, T/C [30]: 30.5%
viability, T/C [31]: 57.3%
viability, T/C [32]: 48.3%
viability, T/C [33]: 48.7%
viability, T/C [34]: 40.4%
viability, T/C [35]: 41.6%
viability, T/C [36]: 27%
